Several values for one entry are separate records, joined by “and”; a condition that tells them apart may be missing. Equal values may be shown once. Values belong to the compound of their own block, whether it stands above or below them.
Test system: 327498-153-R-J2-PDC complex spheroid growth, % test/control
Assay: Anticancer human tumor 327498-153-R-J2-PDC patient-derived uterine carcinosarcoma cell line growth inhibition [Asc]
Conditions: for viability, T/C: stronger effect = lower value
Procedure, shortened: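 Complex spheroids combining tumor cells with HUVEC endothelial cells and human MSCs, at 37 degrees C, 5% CO2; agents tested alone or combined, half-log dilutions from at or near clinical Cmax, or 10 microM if Cmax unknown.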

[1] = curve of first compound, second compound 0.01 µM
[2] = curve of first compound, second compound 0.0316 µM
[3] = curve of first compound, second compound 0.1 µM
[4] = curve of first compound, second compound 0.316 µM
[5] = curve of first compound, second compound 1 µM
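Also: spheroids exposed to compound for 7 days after 3 days of growth.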
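For viability, T/C in this document: 100% = DMSO vehicle control wells.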

IC50 [1]: 4.52 µM | IC50 [2]: 3.83 µM | IC50 [3]: 3.78 µM | IC50 [4]: 4.07 µM | IC50 [5]: 3.71 µM
Structure (SMILES): O=C(c1cc(Cc2n[nH]c(=O)c3ccccc23)ccc1F)N1CCN(C(=O)C2CC2)CC1 + CNC(C)C(=O)NC1CN(S(=O)(=O)c2cccc(S(=O)(=O)N3CCC4CCC(C(=O)NC(c5ccccc5)c5ccccc5)N4C(=O)C(NC(=O)C(C)NC)C3)c2)CCC2CCC(C(=O)NC(c3ccccc3)c3ccccc3)N2C1=O
viability, T/C (second compound 0.01 µM, first compound 0.0316 µM): 98.8% | viability, T/C (second compound 0.01 µM, first compound 0.1 µM): 105% | viability, T/C (second compound 0.01 µM, first compound 0.316 µM): 102% | viability, T/C (second compound 0.01 µM, first compound 1 µM): 99.2% | viability, T/C (second compound 0.01 µM, first compound 3.16 µM): 67.9% | viability, T/C (second compound 0.01 µM, first compound 10 µM): 11.3% | viability, T/C (second compound 0.0316 µM, first compound 0.0316 µM): 102% | viability, T/C (second compound 0.0316 µM, first compound 0.1 µM): 100% | viability, T/C (second compound 0.0316 µM, first compound 0.316 µM): 108% | viability, T/C (second compound 0.0316 µM, first compound 1 µM): 88.5% | viability, T/C (second compound 0.0316 µM, first compound 3.16 µM): 58.7% | viability, T/C (second compound 0.0316 µM, first compound 10 µM): 9.57% | viability, T/C (second compound 0.1 µM, first compound 0.0316 µM): 97.5% | viability, T/C (second compound 0.1 µM, first compound 0.1 µM): 99.9% | viability, T/C (second compound 0.1 µM, first compound 0.316 µM): 102% | viability, T/C (second compound 0.1 µM, first compound 1 µM): 89.8% | viability, T/C (second compound 0.1 µM, first compound 3.16 µM): 57.6% | viability, T/C (second compound 0.1 µM, first compound 10 µM): 9.51% | viability, T/C (second compound 0.316 µM, first compound 0.0316 µM): 104% | viability, T/C (second compound 0.316 µM, first compound 0.1 µM): 107% | viability, T/C (second compound 0.316 µM, first compound 0.316 µM): 94.5% | viability, T/C (second compound 0.316 µM, first compound 1 µM): 91.4% | viability, T/C (second compound 0.316 µM, first compound 3.16 µM): 60.3% | viability, T/C (second compound 0.316 µM, first compound 10 µM): 11.1% | viability, T/C (second compound 1 µM, first compound 0.0316 µM): 96.8% | viability, T/C (second compound 1 µM, first compound 0.1 µM): 100% | viability, T/C (second compound 1 µM, first compound 0.316 µM): 94.5% | viability, T/C (second compound 1 µM, first compound 1 µM): 90.3% | viability, T/C (second compound 1 µM, first compound 3.16 µM): 56.4% | viability, T/C (second compound 1 µM, first compound 10 µM): 9.85%

IC50 (curve of compound): 0.0999 µM and 0.131 µM and 0.14 µM
Structure (SMILES): COc1c(OCCCN2CCOCC2)ccc2c3n(c(=NC(=O)c4cnc(N)nc4)nc12)CCN3
viability, T/C (compound 0.00316 µM): 93.8% and 96.5% and 105% | viability, T/C (compound 0.01 µM): 92% and 91.4% and 97.5% | viability, T/C (compound 0.0316 µM): 71.2% and 78.3% and 85.6% | viability, T/C (compound 0.1 µM): 51.4% and 57.8% and 60.5% | viability, T/C (compound 0.316 µM): 23.9% and 27.6% and 26.7% | viability, T/C (compound 1 µM): 6.91% and 7.65% and 9.2%

IC50 (curve of compound): 4.01 µM and 5.01 µM and 5.13 µM
Structure (SMILES): O=C(c1cc(Cc2n[nH]c(=O)c3ccccc23)ccc1F)N1CCN(C(=O)C2CC2)CC1
viability, T/C (compound 0.0316 µM): 86.5% and 104% and 109% | viability, T/C (compound 0.1 µM): 89.6% and 99.6% and 105% | viability, T/C (compound 0.316 µM): 92.9% and 93.8% and 98% | viability, T/C (compound 1 µM): 78.8% and 89.2% and 93.4% | viability, T/C (compound 3.16 µM): 58.8% and 71.2% and 71.8% | viability, T/C (compound 10 µM): 18.3% and 19.8% and 20.8%

IC50 (curve of first compound, second compound 0.03 µM): 2.93 µM | IC50 (curve of first compound, second compound 0.0949 µM): 0.709 µM | IC50 (curve of first compound, second compound 0.3 µM): < 0.0316 µM | IC50 (curve of first compound, second compound 0.949 µM): < 0.0316 µM | IC50 (curve of first compound, second compound 3 µM): < 0.0316 µM
Structure (SMILES): C#Cc1c(F)ccc2cc(O)cc(-c3ncc4c(N5CC6CCC(C5)N6)nc(OCC56CCCN5CC(F)C6)nc4c3F)c12 (centres undefined) + CCN1C(C(=O)NC23CCC(C(=O)O)(CC2)CC3)C(c2cccc(Cl)c2F)C2(C(=O)Nc3cc(Cl)ccc32)C12CCCCC2
viability, T/C (second compound 0.03 µM, first compound 0.0316 µM): 87.3% | viability, T/C (second compound 0.03 µM, first compound 0.1 µM): 94.4% | viability, T/C (second compound 0.03 µM, first compound 0.316 µM): 83.2% | viability, T/C (second compound 0.03 µM, first compound 1 µM): 61.2% | viability, T/C (second compound 0.03 µM, first compound 3.16 µM): 54% | viability, T/C (second compound 0.03 µM, first compound 10 µM): 39.4% | viability, T/C (second compound 0.0949 µM, first compound 0.0316 µM): 77.4% | viability, T/C (second compound 0.0949 µM, first compound 0.1 µM): 74.7% | viability, T/C (second compound 0.0949 µM, first compound 0.316 µM): 61.6% | viability, T/C (second compound 0.0949 µM, first compound 1 µM): 43% | viability, T/C (second compound 0.0949 µM, first compound 3.16 µM): 37% | viability, T/C (second compound 0.0949 µM, first compound 10 µM): 26.8% | viability, T/C (second compound 0.3 µM, first compound 0.0316 µM): 33.5% | viability, T/C (second compound 0.3 µM, first compound 0.1 µM): 36.1% | viability, T/C (second compound 0.3 µM, first compound 0.316 µM): 24.3% | viability, T/C (second compound 0.3 µM, first compound 1 µM): 15.7% | viability, T/C (second compound 0.3 µM, first compound 3.16 µM): 14.4% | viability, T/C (second compound 0.3 µM, first compound 10 µM): 7.22% | viability, T/C (second compound 0.949 µM, first compound 0.0316 µM): 10.2% | viability, T/C (second compound 0.949 µM, first compound 0.1 µM): 9.47% | viability, T/C (second compound 0.949 µM, first compound 0.316 µM): 4.8% | viability, T/C (second compound 0.949 µM, first compound 1 µM): 4.74% | viability, T/C (second compound 0.949 µM, first compound 3.16 µM): 4.43% | viability, T/C (second compound 0.949 µM, first compound 10 µM): 1.84% | viability, T/C (second compound 3 µM, first compound 0.0316 µM): 2.16% | viability, T/C (second compound 3 µM, first compound 0.1 µM): 1.97% | viability, T/C (second compound 3 µM, first compound 0.316 µM): 2.08% | viability, T/C (second compound 3 µM, first compound 1 µM): 1.55% | viability, T/C (second compound 3 µM, first compound 3.16 µM): 1.14% | viability, T/C (second compound 3 µM, first compound 10 µM): 0.73%

IC50 [1]: 0.193 µM | IC50 [2]: 0.151 µM | IC50 [3]: 0.173 µM | IC50 [4]: 0.173 µM | IC50 [5]: 0.15 µM
Structure (SMILES): CCN1C(C(=O)NC23CCC(C(=O)O)(CC2)CC3)C(c2cccc(Cl)c2F)C2(C(=O)Nc3cc(Cl)ccc32)C12CCCCC2 (centres undefined) + CNC(C)C(=O)NC1CN(S(=O)(=O)c2cccc(S(=O)(=O)N3CCC4CCC(C(=O)NC(c5ccccc5)c5ccccc5)N4C(=O)C(NC(=O)C(C)NC)C3)c2)CCC2CCC(C(=O)NC(c3ccccc3)c3ccccc3)N2C1=O
viability, T/C (second compound 0.01 µM, first compound 0.00949 µM): 88.1% | viability, T/C (second compound 0.01 µM, first compound 0.03 µM): 90.9% | viability, T/C (second compound 0.01 µM, first compound 0.0949 µM): 72.2% | viability, T/C (second compound 0.01 µM, first compound 0.3 µM): 35.9% | viability, T/C (second compound 0.01 µM, first compound 0.949 µM): 8.7% | viability, T/C (second compound 0.01 µM, first compound 3 µM): 3.12% | viability, T/C (second compound 0.0316 µM, first compound 0.00949 µM): 90.8% | viability, T/C (second compound 0.0316 µM, first compound 0.03 µM): 83.9% | viability, T/C (second compound 0.0316 µM, first compound 0.0949 µM): 62% | viability, T/C (second compound 0.0316 µM, first compound 0.3 µM): 32.4% | viability, T/C (second compound 0.0316 µM, first compound 0.949 µM): 7.36% | viability, T/C (second compound 0.0316 µM, first compound 3 µM): 1.14% | viability, T/C (second compound 0.1 µM, first compound 0.00949 µM): 97.8% | viability, T/C (second compound 0.1 µM, first compound 0.03 µM): 87.8% | viability, T/C (second compound 0.1 µM, first compound 0.0949 µM): 67.2% | viability, T/C (second compound 0.1 µM, first compound 0.3 µM): 35.1% | viability, T/C (second compound 0.1 µM, first compound 0.949 µM): 9.87% | viability, T/C (second compound 0.1 µM, first compound 3 µM): 1.93% | viability, T/C (second compound 0.316 µM, first compound 0.00949 µM): 101% | viability, T/C (second compound 0.316 µM, first compound 0.03 µM): 89.7% | viability, T/C (second compound 0.316 µM, first compound 0.0949 µM): 67.1% | viability, T/C (second compound 0.316 µM, first compound 0.3 µM): 35.8% | viability, T/C (second compound 0.316 µM, first compound 0.949 µM): 9.28% | viability, T/C (second compound 0.316 µM, first compound 3 µM): 5.81% | viability, T/C (second compound 1 µM, first compound 0.00949 µM): 100% | viability, T/C (second compound 1 µM, first compound 0.03 µM): 82.1% | viability, T/C (second compound 1 µM, first compound 0.0949 µM): 64.8% | viability, T/C (second compound 1 µM, first compound 0.3 µM): 32.3% | viability, T/C (second compound 1 µM, first compound 0.949 µM): 4.68% | viability, T/C (second compound 1 µM, first compound 3 µM): 1.29%
